Experimental data from the NIST ThermoML archive (doi:10.1021/je049579x).
Where “and” joins values, the source holds several entries; their conditions need not be identical. Equal values may be shown once.

Settings: Crystal, Torsion effusion method

[Br-].[Br-].[Br-].[Lu+3] [lutetium tribromide]
Settings	vapor or sublimation pressure
903 K	6.3e-05 kPa
908 K	7.9e-05 kPa
909 K	9.3e-05 kPa
910 K	6.3e-05 kPa and 9.3e-05 kPa
914 K	9.3e-05 kPa
917 K	9.3e-05 kPa
918 K	0.000141 kPa and 0.000126 kPa
919 K	0.000126 kPa
920 K	0.00011 kPa
921 K	9.3e-05 kPa and 0.00011 kPa
924 K	0.000141 kPa
926 K	0.000126 kPa and 0.000191 kPa
927 K	0.000191 kPa
929 K	0.000204 kPa
930 K	0.000158 kPa and 0.000126 kPa
931 K	0.000158 kPa
935 K	0.000191 kPa
936 K	0.000234 kPa
937 K	0.000282 kPa
938 K	0.000251 kPa and 0.000219 kPa and 0.000282 kPa
939 K	0.000282 kPa
940 K	0.000191 kPa
946 K	0.000316 kPa
947 K	0.00038 kPa
948 K	0.00038 kPa [middle of 4 runs]
950 K	0.000407 kPa and 0.000282 kPa
956 K	0.000427 kPa and 0.000437 kPa and 0.000501 kPa
957 K	0.000562 kPa
958 K	0.00049 kPa and 0.000468 kPa
960 K	0.000603 kPa and 0.000427 kPa
965 K	0.000676 kPa
966 K	0.000617 kPa and 0.000794 kPa and 0.000724 kPa
967 K	0.000661 kPa and 0.000794 kPa
968 K	0.000661 kPa
969 K	0.000794 kPa and 0.000617 kPa
973 K	0.000912 kPa
975 K	0.000813 kPa
976 K	0.001096 kPa and 0.001047 kPa
977 K	0.001072 kPa
978 K	0.000912 kPa and 0.000933 kPa
979 K	0.001096 kPa and 0.000912 kPa
981 K	0.001175 kPa
984 K	0.001445 kPa
986 K	0.001202 kPa and 0.001413 kPa and 0.001445 kPa
987 K	0.001318 kPa
988 K	0.001288 kPa
989 K	0.001514 kPa and 0.00123 kPa and 0.001585 kPa
995 K	0.00195 kPa and 0.001778 kPa
996 K	0.001585 kPa and 0.00195 kPa
997 K	0.00195 kPa and 0.001778 kPa
998 K	0.001778 kPa and 0.001622 kPa
999 K	0.002089 kPa
1004 K	0.00257 kPa and 0.002399 kPa
1006 K	0.002512 kPa and 0.002089 kPa and 0.00257 kPa
1007 K	0.002188 kPa and 0.002399 kPa
1008 K	0.002399 kPa
1009 K	0.002818 kPa
1013 K	0.003311 kPa and 0.00309 kPa
1016 K	0.003162 kPa
1017 K	0.002951 kPa and 0.003388 kPa
1018 K	0.003236 kPa and 0.00302 kPa and 0.003548 kPa
1023 K	0.004074 kPa
1026 K	0.004074 kPa
1027 K	0.003981 kPa and 0.003802 kPa and 0.005012 kPa
1028 K	0.00389 kPa
1038 K	0.007244 kPa

[Cl][Lu]([Cl])[Cl] [lutetium trichloride]
Settings	vapor or sublimation pressure
942 K	6.3e-05 kPa
945 K	7.9e-05 kPa
946 K	7.9e-05 kPa
953 K	7.9e-05 kPa
955 K	0.000126 kPa
958 K	0.00011 kPa
959 K	0.000126 kPa
963 K	0.000141 kPa
968 K	0.000158 kPa
969 K	0.000191 kPa
970 K	0.000158 kPa
976 K	0.000219 kPa
978 K	0.000251 kPa
981 K	0.000251 kPa
982 K	0.000316 kPa
984 K	0.000347 kPa
991 K	0.00038 kPa and 0.000407 kPa
992 K	0.00038 kPa
998 K	0.000468 kPa and 0.00055 kPa
1001 K	0.000603 kPa
1002 K	0.000562 kPa
1004 K	0.000617 kPa and 0.000575 kPa
1005 K	0.000631 kPa
1012 K	0.000794 kPa
1013 K	0.000912 kPa
1016 K	0.000933 kPa
1017 K	0.001 kPa and 0.000912 kPa
1018 K	0.000977 kPa
1024 K	0.00123 kPa
1029 K	0.001445 kPa
1030 K	0.001445 kPa
1031 K	0.001622 kPa
1032 K	0.001622 kPa
1033 K	0.00166 kPa and 0.001778 kPa
1042 K	0.002239 kPa and 0.002188 kPa and 0.002138 kPa
1046 K	0.00263 kPa
1047 K	0.002692 kPa
1048 K	0.002818 kPa
1050 K	0.002951 kPa
1051 K	0.002951 kPa
1053 K	0.003162 kPa
1058 K	0.003631 kPa
1059 K	0.003548 kPa
1060 K	0.003715 kPa and 0.003981 kPa
1062 K	0.00389 kPa
1066 K	0.004467 kPa
1071 K	0.00537 kPa and 0.004898 kPa
1075 K	0.005495 kPa and 0.00537 kPa
